Results from paper PMC9030827, “In Vitro Effects of Mitochondria-Targeted Antioxidants in a Small-Cell Carcinoma of the Ovary of Hypercalcemic Type and in Type 1 and Type 2 Endometrial Cancer” (Biomedicines, 2022).

Assays:
Type in all cases: cell-based, human
[1] = system: COV434 cells; test: Nuclear changes by Höechst staining; details: COV434, 72 h, 5 μM Mito6_TPP, 10 μM Mito6_isoq.; for Nucleus shape and chromatin condensation (Höechst staining): 20 μM Mito6_picol.
Experimental: (§1) Morphological changes in all cell lines were evaluated by phase-contrast microscopy (Eclipse TS100 Inverted Microscope, Nikon, Tokyo, Japan) and Giemsa staining. […] The cells were plated in 24-well plates with coverslips using the densities of 1 × 10^5 cells/well in Ishikawa and Hec50co and 2.5 × 10^5 cells/well in COV434 and HFF-1. After adherence, the cells were treated with Mito6_TPP (5 μM), Mito6_picol. (20 μM), or Mito6_isoq. (10 μM) and incubated at 37 °C with 5% CO2 for 72 h. For Giemsa staining, the cells were fixated with paraformaldehyde 4% in Phosphate Buffered Saline (PBS) for 15 min, stained with Giemsa solution for 30 min, mounted with DPX, and observed through bright field microscopy. For Höechst staining, the cells were incubated with 0.5 μg/mL Höechst 33342 in PBS for 20 min in the dark, mounted in Fluoroshield, and observed under a fluorescence microscope equipped with an excitation filter with maximum transmission at 360/400 nm. In both stainings, the cells were observed using the microscope Eclipse CI (Nikon, Japan) and the images were processed with Nikon NIS Elements Image Software (Nikon, Japan).

[2] = system: Hec50co cells; test: Nuclear changes by Höechst staining; details: 72 h, 5 μM Mito6_TPP, 10 μM Mito6_isoq.; for Nucleus shape and chromatin condensation (Höechst staining): 20 μM Mito6_picol.
Experimental: as §1

[3] = system: Ishikawa cells; test: Nuclear changes by Höechst staining; details: 72 h, 5 μM Mito6_TPP, 10 μM Mito6_isoq.; for Nucleus shape and chromatin condensation (Höechst staining): 20 μM Mito6_picol.
Experimental: as §1

[4] = system: COV434 cells; test: Mitochondrial membrane potential (Δψm) assessment, DiOC6 probe; details: COV434, 48 h; 5 μM Mito6_TPP, 20 μM Mito6_picol., 10 μM Mito6_isoq.
Experimental: (§2) The Ishikawa, Hec50co, COV434, and HFF-1 cell lines were plated at a density of 5 × 10^4 cells/well in black 96-well plates. After 24 h, the cells were treated with Mito6_TPP (5 μM), Mito6_picol. (20 μM), or Mito6_isoq. (10 μM) and incubated at 37 °C with 5% CO2 for 48 h. The Δψm study was adapted from the work of Sivandzade et al.. The mitochondrial membrane-depolarizing agent carbonyl cyanide m-chlorophenylhydrazone (CCCP) (50 μM) was used as the positive control, being added to the cells for 20 min prior to the addition of the probe DiOC6 (100 nM) for 30 min at 37 °C in the dark. The fluorescence was then measured using a BioTek Synergy HTX Multi-Mode Microplate Fluorimeter equipped with BioTek Gen5 Data Collection and Analysis Software (BioTek Instruments, Winooski, VT, USA) (excitation: 488 nm; emission: 525 nm).

[5] = system: Hec50co cells; test: as above; details: 48 h, 5 μM Mito6_TPP, 20 μM Mito6_picol., 10 μM Mito6_isoq.
Experimental: as §2

[6] = system: Ishikawa cells; test: as above; details: 48 h, 5 μM Mito6_TPP, 20 μM Mito6_picol., 10 μM Mito6_isoq.
Experimental: as §2

| SMILES | Nuclear fragmentation (Höechst staining) [1] | Nucleus shape and chromatin condensation (Höechst staining) [1] | Nuclear fragmentation (Höechst staining) [2] | Nucleus shape and chromatin condensation (Höechst staining) [2] | Nuclear fragmentation (Höechst staining) [3] | Nucleus shape and chromatin condensation (Höechst staining) [3] | Mitochondrial membrane potential (Δψm) change vs untreated cells [4] | Mitochondrial membrane potential (Δψm) change vs untreated cells [5] | Mitochondrial membrane potential (Δψm) change vs untreated cells [6] |
| --- | --- | --- | --- | --- | --- | --- | --- | --- | --- |
| O=C(/C=C/c1ccc(O)c(O)c1)NCCCCCCCCCC[P+](c1ccccc1)(c1ccccc1)c1ccccc1 [Mito6_TPP] | nuclear fragmentation visible | changes in the nucleus shape and the chromatin condensation | nuclear fragmentation visible | changes in the nucleus shape and the chromatin condensation | nuclear fragmentation visible | changes in the nucleus shape and the chromatin condensation | significant decrease | significant decrease | significant decrease |
| O=C(/C=C/c1ccc(O)c(O)c1)NCCCCCCCCCC[n+]1ccc2ccccc2c1 [Mito6_isoq.] | nuclear fragmentation visible | changes in the nucleus shape and the chromatin condensation | nuclear fragmentation visible | changes in the nucleus shape and the chromatin condensation | nuclear fragmentation visible | changes in the nucleus shape and the chromatin condensation | significant decrease | significant decrease | significant decrease |
| Cc1cc[n+](CCCCCCCCCCNC(=O)/C=C/c2ccc(O)c(O)c2)cc1 [Mito6_picol.] | – | did not induce any morphological changes | – | did not induce any morphological changes | – | did not induce any morphological changes | decrease | decrease only in the Ishikawa and COV434 cells | decrease |
